Data published in patent publication US20230241024A1, “METHODS OF TREATING METABOLIC DISORDERS” (Sunovion Pharmaceuticals Inc., priority 2021, published 2023).

Experiments:
[1] = Food effect on the pharmacokinetics of 50 mg tablet (Example 10); conditions: 50 mg Compound 1 tablet
Source text: Methods: The study used an open-label randomized 2-period crossover design in 20 healthy volunteers. Subjects were fasted overnight then randomly assigned to 1 of 2 dosing sequences, A ➔ B or B ➔ A, where A was the fasted condition and B was the fed condition. […] The fed and fasted dosing periods were separated by one week. Serial plasma samples from each period were collected for PK analysis.
Solid phase extraction was used for sample cleanup. Stable isotope-labeled internal standards were used for corresponding analytes. Noncompartment PK parameters were calculated using Phoenix WinNonlin® software.

[2] = test system: female Sprague Dawley rats fed on a high-fat powdered diet; experiment: Body weight, food intake, body composition and liver triglycerides, once daily dosing up to 15 days, high-fat diet rats (Example 2.1); assay type: in vivo, rat; conditions: Olanzapine 3 mg/kg po
Protocol: Body weight and food and water intake were assessed daily.
Animals: Seventy-four (2 spares) female Sprague Dawley rats (weight range 200-300 g) were ordered from Charles River, Margate, Kent. Rats were singly housed in cages with sawdust bedding and enrichment at an ambient temperature of 21 ± 2° C. Upon arrival (Thursday), rats were weighed and given wet mash to aid recovery from transport. Rats were weighed the following day and on the Monday of the following week. Animals were maintained on a reverse-phase light-dark cycle (lights off for 8 hours from 10:00-18 :00 h) during which time the room was illuminated by red light. Rats were weighed on the Friday and Monday of the following week. […] Except for 12 animals (Group F), all animals had free access to a high-fat powdered diet (VRF1 plus 20% lard). […] All rats had access to filtered water at all times. The diets were contained in glass feeding jars with aluminum lids (Solmedia Laboratory Suppliers. Romford. Essex). […] Animals were accustomed to these conditions for at least two weeks before experimentation.
Experimental Procedure: Animals underwent a 3-day baseline run-in period during which time all rats were dosed once a day with vehicle. Dosing was timed to start at approximately 08:45 so that the mid-point was approximately the time of lights out. Animals, food and water were weighed at the time of dosing. Towards the end of the baseline period, animals were weighed (to the nearest 0.1 g using an electronic top-pan balance) and allocated by a statistician. The spare animals were humanely withdrawn from the study.
Dosing (in a randomized order) began at approximately 08:45 h each day (0 h), i.e., the mid-point of dosing is approximately at the time of lights out. Body weight, food and water intake was recorded daily at the time of dosing. All rats were observed before and after dosing and comments on condition were noted as appropriate. On the afternoon of Day 14 (approx. 16:00) animals were fasted to a timed schedule. The experiment ended the following morning on Day 15. On the morning of Day 15, final readings were undertaken 16 hour post-fast (i.e., body weight measurements). Animals were then dosed (as described). Four hours later, a blood sample (1 mL) was taken from the lateral tail vein into tubes containing lithium heparin. […] Animals were then terminated by a Schedule 1 method (exposure to an increasing concentration of C02 with death confirmed by cervical dislocation). A terminal blood sample (circa 4 mL) was taken into an EDTA-coated tube and a single plasma aliquot (approximately 1 mL) was stored frozen (approx. -80° C.) in a clean aliquot tube. The liver was dissected and the caudate lobe removed. Both the caudate lobe and the remaining liver were weighed and stored frozen separately (on dry ice and then transferred to a freezer at approx. -80° C.). The caudate lobe underwent option further analysis of liver triglycerides.

[3] = test system: female Sprague Dawley rats previously treated with olanzapine; experiment: Body weight, food intake, body composition and liver triglycerides of rats previously treated with olanzapine and switched (Example 2.2); assay type: in vivo, rat
Protocol: Rats were singly housed in cages with sawdust bedding and enrichment at an ambient temperature of 21±2° C. Upon arrival (Thursday), rats were weighed and given wet mash to aid recovery from transport. Rats were weighed the following day and the Monday of the following week. Animals were maintained on a reverse-phase light-dark cycle (lights off for 8 h from 10:00-18:00 h) during which time the room was illuminated by red light. Rats were weighed on the Friday and Monday of the following week. […] All animals had free access to a high-fat powdered diet (VRF1 plus 20% lard) and all rats had access to filtered water at all times. The diets were contained in glass feeding jars with aluminum lids (Solmedia Laboratory Suppliers, Romford, Essex). […] Animals were accustomed to these conditions for at least two weeks before experimentation.
Dosing was timed to start at approximately 08:45 so that the mid-point was approximately the time of lights out. Animals, food and water were weighed at the time of dosing. Towards the end of this baseline period, animals were weighed (to the nearest 0.1 g using an electronic top-pan balance) and allocated into 2 weight-matched treatment groups by a Statistician.
Dosing began at approximately 08:45 h each day (0 h), i.e., so the mid-point of dosing was approximately at the time of lights out. This strategy was taken to maximize the impact of the drugs on food intake. Dosing continued for 7 consecutive days and rats were weighed (to the nearest 0.1 g) every day at 0 h. Prior to and at the completion of each dosing session animals were examined and any overt behavioral/physiological effects or other relevant observations regarding the condition of the animals was recorded manually. […] and food intake were assessed daily.
Dosing began at approximately 08:45 h each day (0h), i.e., the mid-point of dosing was approximately at the time of lights out. Body weight, food and water intake was recorded daily at the time of dosing. All rats were observed before and after dosing and comments on condition were noted as appropriate. On the afternoon of Day 14 (approx. 16:00) animals were fasted to a timed schedule. The experiment ended the following morning on Day 15. On the morning of Day 15, final readings were undertaken 16 h post-fast (i.e., body weight measurements). Animals were then dosed (as described). Four hours later, two blood samples (20 µL and 1 mL) were taken from the lateral tail vein into tubes containing lithium heparin. The 20 µL sample was stored frozen (whole blood) prior to determination of HbAlc (Roche Tina-quant A2c Gen 3, Cobas C111). […] Animals were then terminated by a Schedule 1 method (exposure to an increasing concentration of CO2 with death confirmed by cervical dislocation). A terminal blood sample (circa 4 mL) was taken into EDTA-coated tube and a single plasma aliquot (approximately 1 mL) was stored frozen (approx. -80° C.) in a clean aliquot tube. The liver was dissected and the caudate lobe removed. Both the caudate lobe and the remaining liver was weighed and stored frozen separately (on dry ice and then transferred to a freezer at approx. -80° C.). The caudate lobe underwent further analysis of liver triglycerides. Carcasses were stored frozen (approx. -20° C.) for potential body composition analysis. Metabolic parameters including fasting glucose and insulin levels, liver triglycerides and body fat composition were determined at the end of the study.

[4] = Week 1 (Day 1-8), Olanzapine 3 mg/kg po
[5] = Week 2 (Day 8-13), after olanzapine Day 1-7, 3 mg/kg po
[6] = Week 2 (Day 8-14), continued Olanzapine 3 mg/kg po
[7] = from Day 8, after olanzapine Day 1-7, 3 mg/kg po

NC[C@@H]1OCCc2ccsc21 [metabolite]
geometric mean ratio for AUC0-∞ (fed/fasted) [1]: 98.29%
geometric mean ratio of Cmax (fed/fasted) [1]: 94.77%
ratio of N-desmethyl active metabolite to parent Compound 1, fed versus fasted [1]: no change

Cc1cc2c(s1)Nc1ccccc1N=C2N1CCN(C)CC1 [Olanzapine, olanzapine]
Fat in carcass % change vs vehicle [2]: 8.8%
Fat in carcass Difference vs vehicle [2]: 1.4%
Fat in carcass, Mean [2]: 16.9%
Fat per rat % change vs vehicle [2]: 12.4%
Fat per rat Difference vs vehicle [2]: 5.2 g
Fat per rat, Mean [2]: 47.0 g
Liver Total triglycerides Mean [2]: 227.46 µmol
Liver Total triglycerides vs vehicle [2]: 85.6
Liver triglycerides % vs vehicle [2]: 77.1%
Liver triglycerides, Mean [2]: 25.07 µmol/g
Protein in carcass % change vs vehicle [2]: -1.8%
Protein in carcass Difference vs vehicle [2]: -0.38%
Protein in carcass, Mean [2]: 20.46%
Protein per rat % change vs vehicle [2]: 3.5%
Protein per rat Difference vs vehicle [2]: 1.9 g
Protein per rat, Mean [2]: 56.9 g
Water in carcass % change vs vehicle [2]: -1.4%
Water in carcass Difference vs vehicle [2]: -0.8%
Water in carcass, Mean [2]: 59.9%
Water per rat % change vs vehicle [2]: 3.6%
Water per rat Difference vs vehicle [2]: 5.8 g
Water per rat, Mean [2]: 166.5 g
Daily food intake % change ([2]; Overall (Day 1-13)): 13.6%
Daily food intake Difference ([2]; Overall (Day 1-13)): 2.0 g/day
Daily food intake Mean ([2]; Overall (Day 1-13)): 16.4 g/day
Changes in body weights Difference vs vehicle ([2]; Overall (Day 1-14)): 21.5 g
Changes in body weights Mean ([2]; Overall (Day 1-14)): 33.2 g
increase in body weight, previously shown in-house in this model ([3]; Olanzapine 3 mg/kg po): 4-6%
Averages of daily food intakes, Difference vs Vehicle (A) ([3]; Week 1 (Day 1-7), 3 mg/kg po): 1.90 g/day
Averages of daily food intakes, Mean ([3]; Week 1 (Day 1-7), 3 mg/kg po): 17.21 g/day
Changes in body weights Difference vs Vehicle (A) [3, 4]: 13.07 g
Changes in body weights Mean [3, 4]: 25.48 g
Averages of daily food intakes, Difference vs Vehicle (A) [3, 5]: 1.60 g/day
Averages of daily food intakes, Mean [3, 5]: 16.73 g/day
Changes in body weights Difference vs Vehicle (A) [3, 6]: 7.55 g
Changes in body weights Mean [3, 6]: 16.70 g
Fat in carcass, % change vs Vehicle (A) [3, 7]: 18.3%
Fat in carcass, Difference vs Vehicle (A) [3, 7]: 2.4%
Fat in carcass, Mean [3, 7]: 15.8%
Fat per rat, % change vs Vehicle (A) [3, 7]: 22.7%
Fat per rat, Difference vs Vehicle (A) [3, 7]: 8.0 g
Fat per rat, Mean [3, 7]: 43.3 g
Final carcass weight, % change vs Vehicle (A) [3, 7]: 4.1%
Final carcass weight, Mean [3, 7]: 271.9 g
Liver triglycerides (µmol total), % vs Vehicle (A) [3, 7]: 100.4%
Liver triglycerides (µmol/g), % vs Vehicle (A) [3, 7]: 100.0%
Liver triglycerides, Mean [3, 7]: 348 µmol total
Protein in carcass, % change vs Vehicle (A) [3, 7]: -2.4%
Protein in carcass, Difference vs Vehicle (A) [3, 7]: -0.49%
Protein in carcass, Mean [3, 7]: 20.24%
Protein per rat, % change vs Vehicle (A) [3, 7]: 1.6%
Protein per rat, Difference vs Vehicle (A) [3, 7]: 0.9 g
Protein per rat, Mean [3, 7]: 55.0 g
Water in carcass, % change vs Vehicle (A) [3, 7]: -3.6%
Water in carcass, Difference vs Vehicle (A) [3, 7]: -2.2%
Water in carcass, Mean [3, 7]: 60.4%
Water per rat, % change vs Vehicle (A) [3, 7]: 0.3%
Water per rat, Difference vs Vehicle (A) [3, 7]: 0.6 g
Water per rat, Mean [3, 7]: 163.9 g
